Laboratory results: paper PMC3466269, “A Comprehensive Strategy to Discover Inhibitors of the Translesion Synthesis DNA Polymerase κ” (PLoS ONE, 2012)

Legend:
[1] = molecular target: T1, Human pol κ (Homo sapiens, UniProt Q9UBT6); experiment: Radioactive gel-based primer extension (TLS) past acrolein-derived ring-opened reduced form of γ-HOPdG, pol κ; format: biochemical; details: primer extension, adducted DNA, 0.25 nM pol κ; average ± standard error, three experiments; read-out: gel: ring-opened reduced form of γ-HOPdG: IC50
T1 construct: Human pol κ (residues 19–526) was purified as previously reported; made in house
T1 sequence (Q9UBT6 19-526): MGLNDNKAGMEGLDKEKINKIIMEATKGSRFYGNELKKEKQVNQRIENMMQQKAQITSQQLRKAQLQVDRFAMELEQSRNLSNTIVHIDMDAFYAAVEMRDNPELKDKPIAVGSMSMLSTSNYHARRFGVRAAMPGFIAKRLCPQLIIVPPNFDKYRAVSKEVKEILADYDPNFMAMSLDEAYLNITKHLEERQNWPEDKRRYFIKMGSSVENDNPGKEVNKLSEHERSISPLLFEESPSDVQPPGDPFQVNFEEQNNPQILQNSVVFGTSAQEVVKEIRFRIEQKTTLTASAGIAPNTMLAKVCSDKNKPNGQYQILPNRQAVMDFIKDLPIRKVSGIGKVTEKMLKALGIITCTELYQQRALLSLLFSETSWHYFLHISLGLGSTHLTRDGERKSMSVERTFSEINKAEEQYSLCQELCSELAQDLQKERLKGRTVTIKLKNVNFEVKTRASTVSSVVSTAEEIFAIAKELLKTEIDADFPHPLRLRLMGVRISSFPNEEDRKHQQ
Method: The reactions with pol κ, pol η, and pol ι were carried out in the buffers containing 25 mM Tris-HCl, pH 7.5, 8 mM MgCl2, 10% glycerol, 100 µg/mL bovine serum albumin, and 5 mM DTT. Buffers for pol δ reactions contained 40 mM Hepes-KOH, pH 6.8, 10% glycerol, 200 µg/mL bovine serum albumin, 1 mM DTT, and 8 mM MgCl2. Final concentration of pol κ, pol η, pol ι, or pol δ in the reaction was 0.25 nM, 1 nM, 2.5 nM, or 4 nM, respectively. In this assay, a polymerase was preincubated with the compound for 15 min at room temperature. Primer extensions were then initiated by the addition of DNA substrate at final concentration of 5 nM and carried out for 30 min at room temperature in the presence of 100 µM dCTP and dGTP. The reactions were terminated by the addition of an equal volume of a dye solution containing 95% (v/v) formamide, 10 mM EDTA, 0.03% (w/v) xylene cyanol, and 0.03% (w/v) bromphenol blue. Reaction products were separated through a 15% acrylamide gel containing 8 M urea and visualized with a PhosphorImager screen. The ratio of extended primer to the total amount of primer was measured using ImageQuant 5.2 software to calculate the percentage of primer extended. IC50 values were determined by fitting the data to variable slope four-parameter equations using GraphPad Prism 5.
The primary role of pol κ is to bypass DNA lesions. Therefore, it was critical to establish the assays to investigate the capability of these compounds to inhibit lesion bypass activity of pol κ. Radioactive gel-based primer extension reactions were carried out using a DNA substrate containing a site-specific acrolein-derived ring-opened reduced form of γ-HOPdG, a lesion that pol κ can efficiently bypass in vitro [13].

[2] = molecular target: T2, Human pol κ (residues 19–526) (Homo sapiens, UniProt Q9UBT6); experiment: qHTS fluorescence-based DNA strand displacement assay; format: biochemical; details: fluorescence strand displacement, 10 nM pol κ, 50 nM substrate, 100 µM dTTP; read-out: qHTS: IC50
T2 construct: Human pol κ (residues 19–526) was purified as previously reported; made in house
T2 sequence (Q9UBT6 19-526): T1 sequence (Q9UBT6 19-526)
Method: The substrate used in qHTS was made by the annealing of unlabeled oligodeoxynucleotide primer (5′-TCACCCTCGTACGACTC-3′) and TAMRA-labeled reporter strand (5′-TTTTTTTTTTGC-6-TAMRA-3′) to oligodeoxynucleotide template labeled with BHQ-2 (5′-BHQ-2-[…]-3′) as originally described by Dorjsuren et al.. The annealing mixture of unlabeled primer, TAMRA-labeled reporter, and BHQ-2-labeled template in buffer containing 50 mM Tris-HCl, pH 8.0, 100 mM NaCl, and 5 mM MgCl2 was heated at 95°C for 5 min and allowed to cool gradually to room temperature. The substrate was then stored at −20°C as 50 µM stock.
qHTS was performed in 50 mM Tris-HCI, pH 8.0, 40 mM NaCl, 1 mM MgCl2, 0.01% Tween-20, 2 mM DTT, and 100 µM dTTP. 3 µL of reagents (buffer as negative control and pol κ in the remaining plate at 10 nM final concentration) were dispensed by Flying Reagent Dispenser™ (FRD) (Beckman Coulter, Inc., Fullerton, CA) into a 1,536-well plate. Compounds were delivered as 23 nL in DMSO solution via pintool transfer; vehicle-only control consisted of 23 nL DMSO. The plate was incubated for 15 min at room temperature, and then 1 µL of substrate (50 nM final concentration) was added to initiate the reaction. The plate was immediately transferred into ViewLux reader for kinetic fluorescence data collection.
To lay the foundation for the methodologies to discover and characterize inhibitors of pol κ, we used a fluorescent reporter strand displacement assay (Figure 1 and [27]). The library of bioactive small molecules was tested as seven-point dilution series, with the final concentrations ranging from 2.9 nM to 57 µM.

[3] = tested on: XP30RO cells (XP-V); experiment: Cell survival assay, crystal violet, with or without UV
Method: Cell survival assays were carried out using crystal violet assays and CellTiter-Glo Luminescent Cell Viability Assays. In crystal violet assays, XP30RO cells were plated into clear 96-well plates at a density of 8000 cells/mL and incubated overnight at 37°C, 5% CO2. The cells were treated with (1) inhibitor alone for 6 h or (2) UV alone or (3) inhibitor alone for 6 h followed by UV irradiation. After 2 days, cells were fixed with 4% paraformaldehyde and stained with 0.5% crystal violet dye. The dye was dissolved in 10% acetic acid and absorbance measurement was taken at OD595 nm with Infinite® M200 plate reader (Tecan, Durham, NC). For the CellTiter-Glo Luminescent Cell Viability Assays, the same procedures as crystal violet assays were used except that white/clear bottom 96-well plates were used and cell viability was measured following manufacturer's recommendations.
XP30RO cells were treated with 24 µM of candesartan cilexetil alone, UV alone at 1.5 J/m^2, 4.5 J/m^2, or 7.5 J/m^2, or in combination. Percent survival was calculated by normalizing the data using the cell survival of untreated cells. The data were obtained from three independent experiments.

IC50 [1]: 11 ± 1.5 µM
IC50 [2]: 32 µM
Structure (SMILES): CCOc1nc2cccc(C(=O)OC(C)OC(=O)OC3CCCCC3)c2n1Cc1ccc(-c2ccccc2-c2nnn[nH]2)cc1 (stereo not shown) [candesartan cilexetil, Candesartan cilexetil]
Cell survival with compound alone ([3]; 24 µM, no UV): cell survival was not altered
Effect on UV-induced cytotoxicity ([3]; crystal violet, inhibitor 6 h then UV 1.5, 4.5 or 7.5 J/m^2, candesartan cilexetil 24 µM): potentiated the cytotoxicity of UV at higher UV doses
